Assay results reported in US12428422B2, “Purine derivatives as SIK-3 inhibitors” (RHIZEN PHARMACEUTICALS AG, priority 2020, dated 2025).

What was measured:
SIK3 (human) = SIK3 (human) (Homo sapiens, UniProt Q9Y2K2); test: Enzymatic radiometric assay against human salt-inducible kinase-3 (SIK3); format: biochemical
Method: Assay 1: Determination of IC50 of Compound M1 Against Human Salt-Inducible Kinase-3 (SIK3) Using an Enzymatic Radiometric Assay
• SIK3 (human) was incubated with 8 mM MOPS pH 7.0, 0.2 mM EDTA, 100 uM of the peptide […] (Substrate), 10 mM Mg Acetate and [gamma-33P-ATP] (specific activity and concentration as required) in the presence of Compound M1. • The reaction was initiated by the addition of the Mg/ATP mix. • After incubation for 40 minutes at room temperature, the reaction was stopped by the addition of phosphoric acid to a concentration of 0.5%. • 10 μL of the reaction mixture was then spotted onto a P30 filtermat and washed four times for 4 minutes in 0.425% phosphoric acid and once in methanol prior to drying and scintillation counting. • The IC50 value was calculated using GraphPad Prism.

6 isoform of PI3K = 6 isoform of PI3K (Homo sapiens, UniProt O00329); test: Activity against PI3K delta isoform (printed "6"); conditions: independently synthesized compound
Chain of 6 isoform of PI3K (O00329 whole entry, canonical isoform): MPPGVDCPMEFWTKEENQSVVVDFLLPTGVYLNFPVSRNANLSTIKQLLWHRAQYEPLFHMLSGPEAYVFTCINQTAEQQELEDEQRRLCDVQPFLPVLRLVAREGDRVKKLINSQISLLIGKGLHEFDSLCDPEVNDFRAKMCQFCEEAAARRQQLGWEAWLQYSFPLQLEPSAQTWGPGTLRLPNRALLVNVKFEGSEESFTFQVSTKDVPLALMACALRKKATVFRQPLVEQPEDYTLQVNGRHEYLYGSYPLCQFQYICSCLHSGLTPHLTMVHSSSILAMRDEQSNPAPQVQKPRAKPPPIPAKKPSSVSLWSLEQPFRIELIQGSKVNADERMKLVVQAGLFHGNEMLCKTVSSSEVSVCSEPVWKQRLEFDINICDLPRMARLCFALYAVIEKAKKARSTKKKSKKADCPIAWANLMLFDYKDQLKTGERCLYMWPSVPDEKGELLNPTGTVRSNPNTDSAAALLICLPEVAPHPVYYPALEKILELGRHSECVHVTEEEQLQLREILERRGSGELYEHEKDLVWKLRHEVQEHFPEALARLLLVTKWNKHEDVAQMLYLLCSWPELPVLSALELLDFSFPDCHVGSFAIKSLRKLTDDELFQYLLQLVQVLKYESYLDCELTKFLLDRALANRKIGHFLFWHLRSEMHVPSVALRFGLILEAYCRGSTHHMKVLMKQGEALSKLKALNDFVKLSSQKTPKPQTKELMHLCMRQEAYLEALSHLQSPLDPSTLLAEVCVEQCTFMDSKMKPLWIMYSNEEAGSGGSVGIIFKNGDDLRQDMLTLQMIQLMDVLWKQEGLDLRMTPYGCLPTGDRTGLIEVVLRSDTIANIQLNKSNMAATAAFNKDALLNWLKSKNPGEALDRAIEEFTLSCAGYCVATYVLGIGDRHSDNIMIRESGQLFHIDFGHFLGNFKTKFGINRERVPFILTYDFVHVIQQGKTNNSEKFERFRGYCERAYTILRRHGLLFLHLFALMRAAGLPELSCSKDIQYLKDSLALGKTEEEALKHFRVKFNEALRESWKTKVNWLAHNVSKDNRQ
Chain of 6 isoform of PI3K (P27986 whole entry partner, canonical isoform): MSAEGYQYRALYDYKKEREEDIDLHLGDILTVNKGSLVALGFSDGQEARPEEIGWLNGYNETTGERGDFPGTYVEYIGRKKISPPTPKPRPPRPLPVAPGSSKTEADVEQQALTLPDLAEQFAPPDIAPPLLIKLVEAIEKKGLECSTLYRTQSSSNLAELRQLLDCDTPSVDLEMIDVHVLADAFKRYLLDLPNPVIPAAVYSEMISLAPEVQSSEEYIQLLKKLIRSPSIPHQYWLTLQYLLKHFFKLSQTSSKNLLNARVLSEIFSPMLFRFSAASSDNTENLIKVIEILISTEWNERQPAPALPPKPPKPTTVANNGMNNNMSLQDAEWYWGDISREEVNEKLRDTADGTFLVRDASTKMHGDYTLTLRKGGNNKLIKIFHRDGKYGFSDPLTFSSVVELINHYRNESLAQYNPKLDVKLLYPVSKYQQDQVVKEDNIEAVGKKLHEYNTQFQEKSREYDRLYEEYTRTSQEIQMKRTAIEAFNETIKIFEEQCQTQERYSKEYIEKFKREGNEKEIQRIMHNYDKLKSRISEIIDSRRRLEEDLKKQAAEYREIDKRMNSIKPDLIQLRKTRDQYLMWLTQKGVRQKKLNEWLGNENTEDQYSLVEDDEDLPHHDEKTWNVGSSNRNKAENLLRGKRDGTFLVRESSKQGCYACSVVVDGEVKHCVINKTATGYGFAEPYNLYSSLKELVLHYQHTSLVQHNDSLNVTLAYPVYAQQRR

U937 cell lines = test: MTT cell growth inhibition, single agent or combination, U937; format: cell-based; conditions: combined with azacytidine or ventoclax, 72 hrs
Method: (§1) Assay 4: Compound M1 as a Single Agent or in Combination with Azacytidine, or Venetoclax was Determined in the AML Lines: THP-1, U937, and MV-4-11.
(§2) Day 0 • The cells were pelleted and counted. • Cells were plated at desired density (100 μl/well) in complete media in a 96-well plate in triplicates. A column for Day “0” reading was also seeded (18-20 hrs after initial plating and before addition of the inhibitors) • Plates were incubated at 37° C. and 5% CO2. Day 1 • 10 μl of MTT (5 mg/ml) were added to the column designated for Day “0”. It was mixed well and incubated at 37° C. and 5% CO2 for 3.5 h. Cells were pelleted down at 4000 rpm for 10 minutes. • Media was aspirated out and 150 μl of DMSO were added to the cells and mixed by pipetting to dissolve the crystals • Plate was read at A560 nm and A640 nm. […] Crystals were dissolved by repeated pipetting. • The plate was read at A560 nm and A640 nm. […]
(§3) Reference absorbance values were subtracted from test absorbance values. Day 0 values were subtracted from final day absorbance values for determining cell growth. Percent cell growth inhibitions were calculated.

MV-4-11 cell lines = test: MTT cell growth inhibition, single agent or combination, MV-4-11; format: cell-based; conditions: combined with azacytidine or ventoclax, 72 hrs
Method: as §1, §2, §3

MCF-7 cell lines = test: MTT cell growth inhibition, combination with taxol, MCF-7; format: cell-based; conditions: combined with taxol, 72 hrs
Method: (§4) Assay 6: Combination of Compound M1 with Standard Agents in Different Cell Lines
(§5) Day 0 • The cells were pelleted and counted. • Cells were plated at desired density (100 μl/well) in complete media in a 96-well plate in triplicates. A column for Day “0” reading was also seeded. (18-20 hrs after initial plating and before addition of the inhibitors) • Plates were incubated at 37° C. and 5% CO2. Day 1 • 10 μl of MTT (5 mg/ml) were added to the column designated for Day “0”. It was mixed well and incubated at 37° C. and 5% CO2 for 3.5 h. Cells were pelleted down at 4000 rpm for 10 minutes. • Media was aspirated out and 150 μl of DMSO were added to the cells and mixed by pipetting to dissolve the crystals • The plate was read at A560 nm and A640 nm. Day 2 • A series of dilutions of the inhibitors were initially made in 100% DMSO and further diluted in growth medium. • Cells were treated with either single agent of DMSO, compound M1, taxol, and a combination of compound M1 and taxol (MDA-MB-231, MCF-7, ZR.75.1 and SK-OV-3). […] Crystals were dissolved by repeated pipetting. • The plate was read at A560 nm and A640 nm. […]
(§6) Reference absorbance values were subtracted from test absorbance values. Day 0 values were subtracted from final day absorbance values for determining cell growth. % Cell growth inhibitions were calculated.

ZR.75.1 cell lines = test: MTT cell growth inhibition, combination with taxol, ZR.75.1; format: cell-based; conditions: combined with taxol, 72 hrs
Method: as §4, §5, §6

Chain of SIK3 (human) (Q9Y2K2 whole entry): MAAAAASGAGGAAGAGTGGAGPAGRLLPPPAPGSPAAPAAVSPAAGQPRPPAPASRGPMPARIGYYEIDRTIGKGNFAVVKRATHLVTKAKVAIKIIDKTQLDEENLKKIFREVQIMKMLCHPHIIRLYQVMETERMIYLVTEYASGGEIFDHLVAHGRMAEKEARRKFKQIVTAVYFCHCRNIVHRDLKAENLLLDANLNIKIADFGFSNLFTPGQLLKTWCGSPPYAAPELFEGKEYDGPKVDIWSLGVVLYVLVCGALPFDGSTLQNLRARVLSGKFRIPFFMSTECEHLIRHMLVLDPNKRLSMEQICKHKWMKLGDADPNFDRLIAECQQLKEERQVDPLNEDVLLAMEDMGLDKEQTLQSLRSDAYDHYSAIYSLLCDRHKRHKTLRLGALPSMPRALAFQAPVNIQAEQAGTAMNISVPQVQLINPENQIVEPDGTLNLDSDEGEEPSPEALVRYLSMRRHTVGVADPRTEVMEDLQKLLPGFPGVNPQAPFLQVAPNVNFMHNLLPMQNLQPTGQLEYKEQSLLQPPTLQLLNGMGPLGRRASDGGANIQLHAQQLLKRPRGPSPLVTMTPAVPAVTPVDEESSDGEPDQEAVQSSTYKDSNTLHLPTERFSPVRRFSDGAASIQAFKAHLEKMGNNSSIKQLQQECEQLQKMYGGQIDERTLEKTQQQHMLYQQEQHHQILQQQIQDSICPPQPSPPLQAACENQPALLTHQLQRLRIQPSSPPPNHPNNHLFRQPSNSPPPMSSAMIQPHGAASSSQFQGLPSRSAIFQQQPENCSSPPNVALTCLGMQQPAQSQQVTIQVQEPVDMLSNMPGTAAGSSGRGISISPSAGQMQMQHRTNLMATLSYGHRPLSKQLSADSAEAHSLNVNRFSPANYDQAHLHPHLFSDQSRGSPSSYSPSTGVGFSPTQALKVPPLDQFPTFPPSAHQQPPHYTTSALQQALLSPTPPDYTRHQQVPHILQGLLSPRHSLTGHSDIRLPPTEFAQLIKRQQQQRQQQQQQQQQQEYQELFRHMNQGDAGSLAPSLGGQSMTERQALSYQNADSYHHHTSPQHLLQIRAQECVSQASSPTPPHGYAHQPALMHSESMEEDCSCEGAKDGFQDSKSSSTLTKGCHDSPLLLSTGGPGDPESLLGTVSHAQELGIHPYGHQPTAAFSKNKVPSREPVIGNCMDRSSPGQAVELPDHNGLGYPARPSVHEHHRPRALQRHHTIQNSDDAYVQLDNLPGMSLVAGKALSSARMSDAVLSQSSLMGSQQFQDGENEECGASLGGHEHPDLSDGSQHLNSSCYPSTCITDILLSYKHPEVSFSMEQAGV

**Q.** Which “activity against salt-inducible kinase 3 (SIK3)” value (SIK3 (human)) does the source give for CC[C@H](Nc1ncnc2[nH]c(O)nc12)c1oc2ccccc2c(=O)c1-c1cccc(F)c1 [Compound M1, (S)-3-(3-fluorophenyl)-2-(1-((8-hydroxy-9H-purin-6-yl)amino)propyl)-4H-chromen-4-one] here?
**A.** Its value is “exhibit activity”.

**Q.** And the “SIK-3 inhibitory potency compared among compounds M, M1 and M2” value (SIK3 (human); of the three compounds M, M1 and M2)?
**A.** Its value is “most potent SIK-3 inhibitor”.

**Q.** What about the “activity against the 6 isoform of PI3K” value (6 isoform of PI3K) of the same compound?
**A.** The value was “inactive”.

**Q.** And the “cell growth inhibition in combination” value (U937 cell lines)?
**A.** Its value is “synergistic activity”.

**Q.** What about the “cell growth inhibition in combination” value (MV-4-11 cell lines) of the same compound?
**A.** Its value is “synergistic activity”.

**Q.** What about the “cell growth inhibition in combination” value (MCF-7 cell lines) of the same compound?
**A.** Its value is “synergistic results”.

**Q.** And the “cell growth inhibition in combination” value (ZR.75.1 cell lines)?
**A.** The value was “synergistic results”.
